What was measured:
D(4) dopamine receptor = target: T1, D(4) dopamine receptor (Homo sapiens, UniProt P21917); assay: Displacement of [3H]N-methylspiperone from human D4 receptor expressed in HEK293 cell membrane by competitive inhibition based analysis; type: cell membranes
T1 sequence (P21917 whole entry): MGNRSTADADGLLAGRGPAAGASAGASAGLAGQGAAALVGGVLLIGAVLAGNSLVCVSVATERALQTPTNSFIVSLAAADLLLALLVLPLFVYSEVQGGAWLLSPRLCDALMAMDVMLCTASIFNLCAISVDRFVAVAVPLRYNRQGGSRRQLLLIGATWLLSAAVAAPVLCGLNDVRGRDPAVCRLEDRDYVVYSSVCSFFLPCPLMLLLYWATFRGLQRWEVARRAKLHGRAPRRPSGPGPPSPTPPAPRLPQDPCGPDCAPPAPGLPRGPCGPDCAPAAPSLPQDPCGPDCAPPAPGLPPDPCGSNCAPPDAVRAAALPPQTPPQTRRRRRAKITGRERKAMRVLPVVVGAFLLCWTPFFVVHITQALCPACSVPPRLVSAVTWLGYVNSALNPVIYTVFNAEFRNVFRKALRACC

D(3) dopamine receptor [1] = target: T2, D(3) dopamine receptor (Homo sapiens, UniProt P35462); assay: Displacement of [3H]N-methylspiperone from human D3 receptor expressed in HEK293 cell membrane at 10 uM by competitive inhibition based analysis; type: cell membranes
[2] = Protein binding in human plasma assessed as unbound fraction; type: ADME, cell-free
D(3) dopamine receptor [3] = target: T2, D(3) dopamine receptor; assay: Displacement of [3H]N-methylspiperone from human D3 receptor expressed in HEK293 cell membrane by competitive inhibition based analysis; type: cell membranes
[4] = Protein binding in mouse plasma assessed as unbound fraction; type: ADME, cell-free
[5] = target: D(2) dopamine receptor (Homo sapiens) (UniProt P14416); assay: Displacement of [3H]N-methylspiperone from human D2 receptor expressed in HEK293 cell membrane at 10 uM by competitive inhibition based analysis; type: cell membranes
D(1B) dopamine receptor [6] = target: T3, D(1B) dopamine receptor (Homo sapiens, UniProt P21918); assay: Displacement of [3H]-SCH23390 from human D5 receptor expressed in HEK293 cell membrane at 10 uM by competitive inhibition based analysis; type: cell membranes
D(1A) dopamine receptor [7] = target: T4, D(1A) dopamine receptor (Homo sapiens, UniProt P21728); assay: Displacement of [3H]-SCH23390 from human D1 receptor expressed in HEK293 cell membrane at 10 uM by competitive inhibition based analysis; type: cell membranes
[8] = Volume of distribution at steady state in rat at 0.25 mg/kg, iv measured for 24 hrs; type: ADME, organism-based; conditions: in vivo
[9] = AUC in rat at 0.25 mg/kg, iv measured for 24 hrs; type: ADME, organism-based; design: time 24 hrs, dose 0.25 mg/kg, route iv; conditions: in vivo
[10] = Drug uptake in rat brain at 0.25 mg/kg, iv measured on day 2 at 0.25 hrs post-dose; type: ADME, organism-based; conditions: time 2 day, read-out: Drug uptake
[11] = Half-life in rat at 0.25 mg/kg, iv measured for 24 hrs; type: ADME, organism-based; conditions: in vivo
[12] = Plasma concentration in rat at 0.25 mg/kg, iv measured on day 2 at 0.25 hrs post-dose; type: ADME, organism-based; conditions: time 2 day
[13] = Ratio of drug level in rat brain to plasma at 0.25 mg/kg, iv measured on day 2 at 0.25 hrs post-dose; type: ADME, organism-based; conditions: time 2 day, read-out: BPR
[14] = Initial plasma concentration in rat at 0.25 mg/kg, iv; type: ADME, organism-based
D(1A) dopamine receptor [15] = target: T4, D(1A) dopamine receptor; assay: Displacement of [3H]-SCH23390 from human D1 receptor expressed in HEK293 cell membrane by competitive inhibition based analysis; type: cell membranes
[16] = Stability of the compound in mouse plasma; type: ADME, cell-free
[17] = target: T5, D(4) dopamine receptor (Homo sapiens) (UniProt P21917); assay: Displacement of [3H]N-methylspiperone from human D4 receptor expressed in HEK293 cell membrane at 10 uM by competitive inhibition based analysis; type: cell membranes
T5 sequence (whole entry): T1 sequence (P21917 whole entry)

D(1B) dopamine receptor [18] = target: T3, D(1B) dopamine receptor; assay: Displacement of [3H]-SCH23390 from human D5 receptor expressed in HEK293 cell membrane by competitive inhibition based analysis; type: cell membranes
[19] = Intrinsic clearance in human liver microsomes; type: ADME, Microsome; conditions: read-out: CLH

T4 sequence (P21728 whole entry): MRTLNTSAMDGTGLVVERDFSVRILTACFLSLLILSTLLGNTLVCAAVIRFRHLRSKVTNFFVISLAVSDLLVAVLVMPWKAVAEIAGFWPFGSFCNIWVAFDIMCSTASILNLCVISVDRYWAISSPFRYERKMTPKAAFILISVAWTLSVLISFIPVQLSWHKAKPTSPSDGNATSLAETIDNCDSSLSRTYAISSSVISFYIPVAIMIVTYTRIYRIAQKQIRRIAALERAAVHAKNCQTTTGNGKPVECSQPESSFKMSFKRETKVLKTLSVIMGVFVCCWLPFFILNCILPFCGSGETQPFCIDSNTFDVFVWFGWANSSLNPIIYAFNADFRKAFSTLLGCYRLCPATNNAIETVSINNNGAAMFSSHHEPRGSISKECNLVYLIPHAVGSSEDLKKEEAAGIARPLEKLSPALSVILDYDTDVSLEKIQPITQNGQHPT
T2 sequence (P35462 whole entry): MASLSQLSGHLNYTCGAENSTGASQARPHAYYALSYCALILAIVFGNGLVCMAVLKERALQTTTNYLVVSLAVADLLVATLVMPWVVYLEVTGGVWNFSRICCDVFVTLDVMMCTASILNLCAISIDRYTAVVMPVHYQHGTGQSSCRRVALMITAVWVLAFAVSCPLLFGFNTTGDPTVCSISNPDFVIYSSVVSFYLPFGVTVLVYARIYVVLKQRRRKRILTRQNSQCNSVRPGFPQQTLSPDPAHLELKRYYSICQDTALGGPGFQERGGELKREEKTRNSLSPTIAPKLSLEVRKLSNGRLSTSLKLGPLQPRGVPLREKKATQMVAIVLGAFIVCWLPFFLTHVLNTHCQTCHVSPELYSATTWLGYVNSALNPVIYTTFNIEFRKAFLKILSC
D(2) dopamine receptor (Homo sapiens), sequence (P14416 whole entry): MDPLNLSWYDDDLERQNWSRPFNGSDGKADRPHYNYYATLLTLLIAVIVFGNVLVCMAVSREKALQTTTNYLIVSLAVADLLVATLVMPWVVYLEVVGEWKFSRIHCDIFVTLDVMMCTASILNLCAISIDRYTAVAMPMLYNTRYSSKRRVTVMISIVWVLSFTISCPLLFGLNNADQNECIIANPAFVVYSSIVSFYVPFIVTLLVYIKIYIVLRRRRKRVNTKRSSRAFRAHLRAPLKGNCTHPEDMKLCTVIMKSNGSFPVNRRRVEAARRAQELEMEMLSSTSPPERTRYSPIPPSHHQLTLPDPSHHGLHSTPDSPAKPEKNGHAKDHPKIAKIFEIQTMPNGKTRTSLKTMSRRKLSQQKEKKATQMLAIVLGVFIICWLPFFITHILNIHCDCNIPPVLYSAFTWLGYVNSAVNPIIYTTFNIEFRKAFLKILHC
T3 sequence (P21918 whole entry): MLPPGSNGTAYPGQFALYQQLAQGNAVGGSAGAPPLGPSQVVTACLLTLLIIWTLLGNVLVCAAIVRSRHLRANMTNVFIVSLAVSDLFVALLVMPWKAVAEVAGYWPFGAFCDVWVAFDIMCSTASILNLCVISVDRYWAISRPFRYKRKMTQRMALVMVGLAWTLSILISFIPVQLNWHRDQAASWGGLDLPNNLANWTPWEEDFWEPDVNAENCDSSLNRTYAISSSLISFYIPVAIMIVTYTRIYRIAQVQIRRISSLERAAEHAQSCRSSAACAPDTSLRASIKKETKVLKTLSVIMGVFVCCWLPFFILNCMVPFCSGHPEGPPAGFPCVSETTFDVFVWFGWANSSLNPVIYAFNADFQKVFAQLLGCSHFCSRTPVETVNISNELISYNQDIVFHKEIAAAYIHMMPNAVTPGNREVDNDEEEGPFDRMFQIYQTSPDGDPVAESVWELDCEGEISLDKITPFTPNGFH

IC50 (D(4) dopamine receptor) [nM]	Ki (D(4) dopamine receptor) [nM]	inhibition (D(3) dopamine receptor [1]; filed as antagonist) [%]	Fu [2] [%]	Ki (D(3) dopamine receptor [3]) [nM]	Fu [4] [%]	inhibition [5] [%]	inhibition (D(1B) dopamine receptor [6]) [%]	inhibition (D(1A) dopamine receptor [7]) [%]	inhibition (D(3) dopamine receptor [1]) [%]	Vdss [8] [L/kg]	AUC [9] [ng·h/mL]	concentration at 48 h [10] [ng/g]	t1/2 [11] [h]	concentration at 48 h [12] [ng/mL]	Kp at 48 h [13]	C0 ([14]; in vivo, iv, 0.25 mg/kg) [ng/mL]	SMILES	further results
200	200	92	1	923	5.7	< 50	< 50	< 50									Cn1ncc2cc(CN3CCC(OCc4cccc(C(F)(F)F)c4)CC3)ccc21	
324	323	76		557		< 50		< 50									Fc1cc(COC2CCN(Cc3cc4ccc(Cl)cc4[nH]3)CC2)ccc1Cl	inhibition (D(1B) dopamine receptor [6]; filed as antagonist): 65%
1820	1800	83	2.5	948	16.1	< 50	< 50	< 50									FC(F)(F)c1cccc(COC2CCN(Cc3ccc4[nH]cnc4c3)CC2)c1	
1150	1160	84		2120		< 50	< 50	< 50									Cc1c(Cl)cccc1NC(=O)CN1CCC(OCc2cccc(C(F)(F)F)c2)CC1	
302	309		5.2	896	3.6	< 50	< 50	< 50	< 50								Cc1nc(CN2CCC(OCc3cccc(C(F)(F)F)c3)CC2)c2ccccn12	
302	299	67	0.3	2460	1.5	< 50	< 50	< 50		5.5	747	134	4.4	45.8	2.9	5.5	Cc1c(Cl)cccc1NC(=O)CN1CCC(OCc2ccc(F)c(F)c2)CC1	
209	211		0.1		0.1	< 50	< 50		< 50								FC(F)(F)c1cccc(COC2CCN(Cc3cc4ccc(Cl)cc4[nH]3)CC2)c1	Ki (D(1A) dopamine receptor [15]): 1190 nM; inhibition (D(1A) dopamine receptor [7]; filed as antagonist): 55%
120	121		0.5			< 50	< 50	< 50	< 50								Cc1cc(NC(=O)CN2CCC(OCc3ccc(F)c(F)c3)CC2)ccc1F	Stability [16]: Unstable
						< 50		< 50	< 50								Cc1cc(CO[C@H]2CCCN(c3ccc(Cl)cc3)C2)ccc1F	inhibition [17]: 4.7%; Ki (D(1B) dopamine receptor [18]): > 10000 nM; inhibition (D(1B) dopamine receptor [6]; filed as antagonist): 66%
4270	4280	57	22.9	4080	40.1	< 50	< 50	< 50		19.2	65.6	112	1.2	7	16.1		Fc1ccc(COC2CCN(Cc3ccc4[nH]cnc4c3)CC2)cc1F	
1510	1520		7.7		17.1	< 50	< 50	< 50	< 50	13.6	79.9	139	1.1	14.1	9.9	23.5	Fc1cc(COC2CCN(Cc3ccc4[nH]cnc4c3)CC2)ccc1Cl	
437	441	76.2		2360		< 50	< 50	< 50									Cc1c(Cl)cccc1NC(=O)CN1CCC(OCc2ccc(Cl)c(F)c2)CC1	
5.01	5.8				3.7	< 50											COc1ccc(CN2CCO[C@H](COc3ccccc3)C2)cc1F	CLint scaled [19]: 71.9 mL/min/kg
275	276		3.6		16.6	< 50	< 50	< 50	< 50	12.9	112	355	1.4	30.6	11.6	32.5	Cn1ncc2cc(CN3CCC(OCc4ccc(F)c(F)c4)CC3)ccc21	
135	134		1.8		22.4	< 50		< 50	< 50	5.1	125	453	0.6	29.9	15.5	52.2	Fc1cc(COC2CCN(Cc3cn4ccccc4n3)CC2)ccc1Cl	Ki (D(1B) dopamine receptor [18]): > 10000 nM; inhibition (D(1B) dopamine receptor [6]; filed as antagonist): 57%
		71		> 10000		< 50	< 50	< 50									Fc1cccc(CO[C@H]2CCCN(c3ccc(Cl)cc3)C2)c1	inhibition [17]: -10%
646	640		1		5.7					6.3	149	214	1.1	30.1	7.2	60.2	Cn1cnc2cc(CN3CCC(OCc4cccc(C(F)(F)F)c4)CC3)ccc21	
148	149	73	< 0.3	965	0.4	< 50		< 50			126	562	1.8	19.4	28.9		Fc1ccc(COC2CCN(Cc3cc4ccc(Cl)cc4[nH]3)CC2)cc1F	Ki (D(1B) dopamine receptor [18]): 3990 nM; inhibition (D(1B) dopamine receptor [6]; filed as antagonist): 64%; C0 ([14]; plasma, read-out: C0): 12.6 ng/mL
339	337		6.2		42.8	< 50	< 50	< 50	< 50	6.4	142	232	0.9	34.9	6.6	49.4	Fc1ccc(COC2CCN(Cc3cn4ccccc4n3)CC2)cc1F	

— ChEMBL document CHEMBL5143585, “Discovery and characterization of benzyloxy piperidine based dopamine 4 receptor antagonists” (Bioorg Med Chem Lett, 2022)
